Measured values as given in US6583136B1, “Antifungal ethers” (Janssen Pharmacuetica N.V., priority 1999, dated 2003).

Tests used:
Cryptococcus neoformans = assay: Determination of fungal susceptibility (MIC); format: cell-based; details: CYG medium, 5 days at 30° C., growth to 35% of control or less
Method: (§1) A panel of Candida isolates plus single isolates of the dermatophytes Microsporum canis, Trichophyton rubrum and Trichophyton mentagrophytes; Aspergillus fumigatus, and Cryptococcus neoformans were used to evaluate the activity of the test compounds in vitro. Inocula were prepared as broth cultures (yeasts) or as suspensions of fungal material made from agar slope cultures (moulds). The test compounds were pipetted from dimethylsulfoxide stock solution into water to provide a series of 10-fold dilutions. The fungal inocula were suspended in the growth medium CYG (F. C. Odds, Journal of Clinical Microbiology, 29, 2735-2740, 1991) at approximately 50,000 colony-forming units (CFU) per ml and added to the aqueous test drugs. The cultures were set up in the 96 wells of plastic microdilution plates and they were incubated for 2 days at 37° C. (Candida spp.) or for 5 days at 30° C. (other fungi). Growth in the microcultures was measured by their optical density (OD) measured at a wavelength of 405 nm. The OD for cultures with test compounds was calculated as a percentage of the OD for control cultures, i.e. the OD for cultures without test compounds. Inhibition of growth to 35% of control or less was recorded as significant inhibition.
(§2) Minimal inhibitory concentration (MIC; in 10^−6 M) of some of the compounds of formula (I) for Candida glabrata, Candida krusei, Candida parapsilosis, Candida albicans, Candida kefyr, Candida tropicalis, Microsporum canis, Trichophyton rubrum, Trichophyton mentagrophytes, Cryptococcus neoformans and Aspergillus fumigatus are listed in table 3.

Microsporum canis = assay: Determination of fungal susceptibility (MIC); format: cell-based; details: CYG medium, 5 days at 30° C., growth to 35% of control or less
Method: as §1, §2

Aspergillus fumigatus = assay: Determination of fungal susceptibility (MIC); format: cell-based; details: CYG medium, 5 days at 30° C., growth to 35% of control or less
Method: as §1, §2

Candida albicans = assay: Determination of fungal susceptibility (MIC); format: cell-based; details: CYG medium, 2 days at 37° C., growth to 35% of control or less
Method: as §1, §2

Candida tropicalis = assay: Determination of fungal susceptibility (MIC); format: cell-based; details: CYG medium, 2 days at 37° C., growth to 35% of control or less
Method: as §1, §2

Candida parapsilosis = assay: Determination of fungal susceptibility (MIC); format: cell-based; details: CYG medium, 2 days at 37° C., growth to 35% of control or less
Method: as §1, §2

[1] = system: Trichophyton mentagrophytes; assay: Determination of fungal susceptibility (MIC); format: cell-based; details: CYG medium, 5 days at 30° C., growth to 35% of control or less
Method: as §1, §2

Trichophyton rubrum = assay: Determination of fungal susceptibility (MIC); format: cell-based; details: CYG medium, 5 days at 30° C., growth to 35% of control or less
Method: as §1, §2

Candida kefyr = assay: Determination of fungal susceptibility (MIC); format: cell-based; details: CYG medium, 2 days at 37° C., growth to 35% of control or less
Method: as §1, §2

Candida krusei = assay: Determination of fungal susceptibility (MIC); format: cell-based; details: CYG medium, 2 days at 37° C., growth to 35% of control or less
Method: as §1, §2

Candida glabrata = assay: Determination of fungal susceptibility (MIC); format: cell-based; details: CYG medium, 2 days at 37° C., growth to 35% of control or less
Method: as §1, §2

[2] = Water solubility in citric acid/Na2HPO4 buffered water; format: physicochemical; details: water buffered with citric acid/Na2HPO4, aqueous buffer, thermodynamic from solid, UV spectroscopy
Method: An excess of compound was added to water buffered with 0.1 M citric acid and 0.2 M Na2HPO4 in a ratio of 61.5/38.5 (pH=4). The mixture was shaken during 1 day at room temperature. The precipitate was filtered off.

MIC values in 10^−6 M (Cryptococcus neoformans)	MIC values in 10^−6 M (Microsporum canis)	MIC values in 10^−6 M (Aspergillus fumigatus)	MIC values in 10^−6 M (Candida albicans)	MIC values in 10^−6 M (Candida tropicalis)	MIC values in 10^−6 M (Candida parapsilosis)	MIC values in 10^−6 M [1]	MIC values in 10^−6 M (Trichophyton rubrum)	MIC values in 10^−6 M (Candida kefyr)	MIC values in 10^−6 M (Candida krusei)	MIC values in 10^−6 M (Candida glabrata)	solubility at 1 day ([2]; pH 3.65, shaken 1 day at room temperature) [µg/mL]	solubility at 1 day ([2]; pH 4.05, shaken 1 day at room temperature) [µg/mL]	SMILES
0.1 10^−6 M	1 10^−6 M	1 10^−6 M	<0.01 10^−6 M	0.1 10^−6 M	<0.01 10^−6 M	1 10^−6 M	0.1 10^−6 M	<0.01 10^−6 M	1 10^−6 M	1 10^−6 M	> 7090	–	CC(OCC(N)Cc1ccccc1)C(C)n1ncn(-c2ccc(N3CCN(c4ccc(OCC5COC(Cn6cncn6)(c6ccc(F)cc6F)O5)cc4)CC3)cc2)c1=O (stereo not drawn) [Compound 3]
1 10^−6 M	<0.1 10^−6 M	1 10^−6 M	<0.1 10^−6 M	1 10^−6 M	<0.1 10^−6 M	10 10^−6 M	10 10^−6 M	<0.1 10^−6 M	10 10^−6 M	10 10^−6 M	–	> 12000	CCC(COCCN(CC)CC)n1ncn(-c2ccc(N3CCN(c4ccc(OCC5COC(Cn6cncn6)(c6ccc(F)cc6F)O5)cc4)CC3)cc2)c1=O (stereo not drawn) [Compound 5]
